Data: patent US10031129B2, “G-protein coupled receptor polypeptides involved in sensory transduction” (The Regents of the University of California, priority 1998, dated 2018)

Tests used:
[1] = molecular target: T1, mammalian γ-opiod receptor (Homo sapiens, UniProt P35372); experiment: ligand-induced changes in [Ca2+]i in control cells expressing γ-opiod/Gα15; type: cell-based; settings: HEK-293 control cells; dependent on Gα15; rapid onset
T1 construct: expressed in transfected cells; host or cells: HEK-293 line expressing SV40 T-antigen; CMV-γ-opiod and TK-Gα15 constructs
T1 sequence (P35372 whole entry): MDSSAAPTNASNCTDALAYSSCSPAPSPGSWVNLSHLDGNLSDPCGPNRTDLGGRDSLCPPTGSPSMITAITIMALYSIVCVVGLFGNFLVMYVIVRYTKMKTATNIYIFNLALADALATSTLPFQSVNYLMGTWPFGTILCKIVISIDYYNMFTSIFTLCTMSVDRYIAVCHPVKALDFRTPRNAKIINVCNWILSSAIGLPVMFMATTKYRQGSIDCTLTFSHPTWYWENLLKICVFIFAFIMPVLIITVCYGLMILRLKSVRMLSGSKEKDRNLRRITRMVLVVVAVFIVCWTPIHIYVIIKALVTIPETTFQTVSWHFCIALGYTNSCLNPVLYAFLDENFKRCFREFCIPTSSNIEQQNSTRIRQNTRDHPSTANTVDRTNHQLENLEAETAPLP
Source text: (§1) To determine the ligand selectivity of GPCR-B4, expression in heterologous cells was used. One issue for GPCR expression in heterologous cells is determining how to couple the GPCR to a G-protein and an appropriate signaling pathway. In this example, the G-protein subunit Gα15 was used, which promiscuously couples a wide range of GPCRs to the phospholipase C-mediated signaling pathway (Offermans & Simon, J. Biol. Chem. 270:15175-15180 (1995)). Consequently, receptor activity can be effectively measured by recording ligand-induced changes in [Ca^2+]i using fluorescent Ca^2+-indicator dyes and fluorometric imaging.
(§2) To insure expression of GPCR-B4 in the plasma membrane, a variety of cell lines and expression vectors were tested. […] An HEK-293 line expressing SV40 T-antigen was co-transfected with a TK-Gα15, CMV-γ-opiod and a pEAK-10 episomal vector (Edge Biosystems) containing a EF1a-[B4-GPCR]construct. Transfection efficiencies were determined using CMV-GFP constructs.

GPCR-B4 = molecular target: T2, GPCR-B4 (Rattus norvegicus, UniProt Q9Z0R7); experiment: ligand-induced changes in [Ca2+]i in HEK-293 cells expressing B4/Gα15 (fluorescent Ca2+-indicator dyes, fluorometric imaging); type: cell-based; settings: HEK-293 line expressing SV40 T-antigen; B4 receptor dependent
T2 construct: expressed in transfected cells; host or cells: HEK-293 line expressing SV40 T-antigen; pEAK-10 episomal vector (Edge Biosystems) with EF1a-[B4-GPCR] construct; TK-Gα15
T2 sequence (Q9Z0R7 20-843): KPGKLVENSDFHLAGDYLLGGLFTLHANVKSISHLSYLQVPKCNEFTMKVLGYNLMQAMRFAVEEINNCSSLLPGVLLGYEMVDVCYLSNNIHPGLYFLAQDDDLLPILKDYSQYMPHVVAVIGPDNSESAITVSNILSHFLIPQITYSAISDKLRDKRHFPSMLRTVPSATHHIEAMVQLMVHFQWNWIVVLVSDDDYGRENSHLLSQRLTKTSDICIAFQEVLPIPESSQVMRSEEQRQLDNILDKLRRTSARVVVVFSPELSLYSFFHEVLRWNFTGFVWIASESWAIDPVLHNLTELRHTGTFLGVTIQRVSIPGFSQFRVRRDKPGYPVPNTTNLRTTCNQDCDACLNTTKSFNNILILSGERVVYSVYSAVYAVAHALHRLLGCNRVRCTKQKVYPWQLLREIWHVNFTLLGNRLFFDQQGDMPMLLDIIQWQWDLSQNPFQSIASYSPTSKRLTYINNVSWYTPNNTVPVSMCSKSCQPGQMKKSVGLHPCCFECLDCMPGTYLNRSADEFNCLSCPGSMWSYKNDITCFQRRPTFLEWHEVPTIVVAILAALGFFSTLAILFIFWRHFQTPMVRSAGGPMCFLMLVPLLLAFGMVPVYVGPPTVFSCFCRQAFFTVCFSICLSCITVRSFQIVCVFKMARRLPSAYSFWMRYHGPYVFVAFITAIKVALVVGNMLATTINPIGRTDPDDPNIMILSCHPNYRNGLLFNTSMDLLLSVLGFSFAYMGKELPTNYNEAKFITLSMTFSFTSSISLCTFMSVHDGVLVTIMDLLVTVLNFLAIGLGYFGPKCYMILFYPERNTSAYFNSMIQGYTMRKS
Source text: as §1, §2

| Compound | response (change in [Ca2+]i) of control cells expressing γ-opiod/Gα15 [1] | response (change in [Ca2+]i) of cells expressing B4/Gα15 or B4/Gα15/γ-opiod (GPCR-B4) |
| --- | --- | --- |
| C[C@@H](NC(=O)[C@@H](N)Cc1ccc(O)cc1)C(=O)NCC(=O)N(C)[C@@H](Cc1ccccc1)C(=O)NCCO [DAMGO] | respond robustly | – |
| NC(=S)Nc1ccccc1 [PTC, phenylthiocarbamide] | – | respond |
